Reference: US20060025474A1, “Bisphenyl compounds useful as vitamin D3 receptor agonists” (priority 2004, published 2006)

test system: ECAC2 mRNA in Caco-2 cells; format: cell-based
Protocol: The mRNA Expression Assay of ECAC2 in Caco-2 Cells
The dispersed cells were plated in 48-well plate at a concentration of 6.3×10^4 cells/well and incubated for 4 days at 37° C. The culture medium (Dulbecco's Modified Eagle Medium (D-MEM) without NaHCO3 with 44 mM NaHCO3, 1 mM non-essential amino acids, and 2 mM L-glutamine, 90%; fetal bovine serum, 10%) was then replaced with the same medium containing various concentrations of LG190178 (the compound disclosed in WO00/10958 and the corresponding U.S. Pat. No. 6,218,430 B1) or the compounds of the present invention, and cells were cultured for 1 day at 37° C. The culture medium containing the compounds was changed twice per day.
Total RNA Isolation from Caco-2 Cell
Total RNA was isolated from Caco-2 cell following ABI PRISM™ 6100 Nucleic Acid PrepStation protocol from Applied Biosystems.
Real Time RT-PCR Assay of ECAC2
ECAC2 mRNA expression was determined using TaqMan One-step RT-PCR Master Mix Reagents Kit and PRISM7000 systems from Applied Biosystems.
Primer information and cycle conditions are 1)ECAC2, forward 5′-[…]-3′, reverse 5′-GTCCTCTGTCTGGMGATGA-3′, Taqman probe 5′-[…]-3′, 55 cycles, annealing temperature (Ta)=60° C.; 2)GAPDH, forward 5′-GMGGTGMGGTCGGAGTC-3′, reverse 5′-GMGATGGTGATGGGATTTC-3′, Taqman probe 5′-[…]-3′, 55 cycles, Ta=60° C. ECAC2 mRNA values were normalized for the expression of GAPDH mRNA within each sample.
Comparison of ECAC2 mRNA Value
The EC50 values of ECAC2 mRNA values were analyzed by Emax models. The ECAC2 mRNA ratio was calculated as the ratio of the EC50 value of the compounds to that of LG190178. ECAC2 is a channel-like transporter mediating intestinal calcium absorption. It is described in J Biol Chem. Aug. 6, 1999; 274(32):22739-46 for example.

In order of falling “ECaC-2 mRNA induction activity in Caco-2 cells” value:
1. CCC(O)(/C=C/c1ccc(C(CC)(CC)c2ccc(OC[C@@H](O)CCC(=O)O)cc2)cc1C)CC [Example 165, (S)-5-(4-{1-Ethyl-1-[4-((E)-3-ethyl-3-hydroxy-pent-1-enyl)-3-methyl-phenyl]-propyl}-phenoxy)4-hydroxy-pentanoic acid]  2017%
2. CCC(CC)(c1ccc(/C=C/C(O)(C(F)(F)F)C(F)(F)F)c(C)c1)c1ccc(OC[C@H](O)CCC(=O)O)c(C)c1 [Example 49, 5-(4-{1-ethyl-1-[3-methyl4-((E)4,4,4-trifluoro-3-hydroxy-3-trifluoromethyl-but-1-enyl)-phenyl]-propyl}-2-methyl-phenoxy)4(R)-hydroxy-pentanoic acid]  987%
3. CCC(CC)(c1ccc(/C=C/C(O)(C(F)(F)F)C(F)(F)F)c(C)c1)c1ccc(OC[C@H]2CCCC(=O)O2)c(C)c1 [Example 61, (R)-6-(4-{1-ethyl-1-[3-methyl4-((E)4,4,4-trifluoro-3-hydroxy-3-trifluoromethyl-but-1-enyl)-phenyl]-propyl}-2-methyl-phenoxymethyl)-tetrahydro-pyran-2-one]  918%
4. CCC(CC)(c1ccc(/C=C/C(O)C(C)(C)C)c(C)c1)c1ccc(OC[C@@H](O)CO)c(C)c1 (stereo partly drawn) [Example 67, 3-(4-{1-ethyl-1-[4-((E)-3-hydroxy-4,4-dimethyl-pent-1-enyl)-3-methyl-phenyl]-propyl}-2-methyl-phenoxy)-propane--1,2(S)-diol]  860%
5. CCC(CC)(c1ccc(/C=C/C2(O)CCCCC2)c(C)c1)c1ccc(OCCCCC(=O)O)c(C)c1 [Example 88, 5-[4-(1-ethyl-1-{4-[(E)-2-(1-hydroxy-cyclohexyl)-vinyl]-3-methyl-phenyl}-propyl)-2-methyl-phenoxy]-pentanoic acid]  845%
6. CCC(CC)(c1ccc(/C=C/C(O)(C(F)(F)F)C(F)(F)F)c(C)c1)c1ccc(CCC(=O)O)c(C)c1 [Example 107, 3-(4-{1-ethyl-1-[3-methyl-4-((E)-4,4,4-trifluoro-3-hydroxy-3-trifluoromethyl-but-1-enyl)-phenyl]-propyl}-2-methyl-phenyl)-propionic acid]  823%
7. C=C1/C(=C\C=C2/CCC[C@]3(C)[C@@H]([C@H](C)CCCC(C)(C)O)CC[C@@H]23)C[C@@H](O)C[C@@H]1O [1,25(OH)2D3, reference compound]  556%
8. CCC(O)(/C=C/c1ccc(C(CC)(CC)c2ccc(OCC(CO)CO)c(C)c2)cc1C)CC [Example 72, 2-(4-{1-Ethyl-1-[4-((E)-3-ethyl-3-hydroxy-pent-1-enyl)-3-methyl-phenyl]-propyl}-2-methyl-phenoxymethyl)-propane-1,3-diol]  542%
9. CCC(CC)(c1ccc(C#CC(O)(C(F)(F)F)C(F)(F)F)c(C)c1)c1ccc(OCC(CO)CO)c(C)c1 [Example 77, 2-(4-{1-ethyl-1-[3-methyl-4-(4,4,4-trifluoro-3-hydroxy-3-trifluoromethyl-but-1-ynyl)-phenyl]-propyl}-2-methyl-phenoxymethyl)-propane-1,3-diol]  534%
10. CCC(CC)(c1ccc(/C=C/C(O)(C(F)(F)F)C(F)(F)F)c(C)c1)c1ccc(OC[C@H]2CCC(=O)O2)c(C)c1 [Example 48, (R)-5-(4-{1-ethyl-1-[3-methyl-4-((E)-4,4,4-trifluoro-3-hydroxy-3-trifluoromethyl-but-1-enyl)-phenyl]-propyl}-2-methyl-phenoxymethyl)-dihydro-furan-2-one]  519%
11. CCC(CC)(c1ccc(CCC(O)C(C)(C)C)c(C)c1)c1ccc(OCCCCC(=O)O)c(C)c1 (stereo not drawn) [Example 80, 5-(4-{1-ethyl-1-[4-(3-hydroxy-4,4-dimethyl-pentyl)-3-methyl-phenyl]-propyl}-2-methyl-phenoxy)-pentanoic acid]  518%
12. CCC(CC)(c1ccc(/C=C/C(O)(C(F)(F)F)C(F)(F)F)c(C)c1)c1ccc(OC[C@H](O)CCCC(=O)O)c(C)c1 [Example 62, (R)-6-(4-{1-Ethyl-1-[3-methyl-4-((E)-4,4,4-trifluoro-3-hydroxy-3-trifluoromethyl-but-1-enyl)-phenyl]-propyl}-2-methyl-phenoxy)-5-hydroxy-hexanoic acid]  410%
13. CCC(O)(/C=C/c1ccc(C(CC)(CC)c2cc(C)c(OC[C@@H](O)CCC(=O)O)c(C)c2)cc1C)CC [Example 167, (S)-5-(4-{1-Ethyl-1-[4-((E)-3-ethyl-3-hydroxy-pent-1-enyl)-3-methyl-phenyl]-propyl}-2,6-dimethyl-phenoxy)-4-hydroxy-pentanoic acid]  323%
14. CCC(CC)(c1ccc(/C=C/C(O)C(C)(C)C)c(C)c1)c1ccc(OCC(CO)CO)c(C)c1 (stereo not drawn) [Example 75, 2-(4-{1-ethyl-1-[4-((E)-3-hydroxy-4,4-dimethyl-pent-1-enyl)-3-methyl-phenyl]-propyl}-2-methyl-phenoxymethyl)-propane-1,3-diol]  309%
15. CCC(O)(/C=C/c1ccc(C(CC)(CC)c2ccc(OCC(=O)CCC(=O)O)c(C)c2)cc1C)CC [Example 198, (E)-5-(4-{1-Ethyl-1-[4-(3-ethyl-3-hydroxy-pent-1-enyl)-3-methyl-phenyl]-propyl}-2-methyl-phenoxy)-4-oxo-pentanoic acid]  271%
16. CCC(CC)(c1ccc(C#CC(O)(C(F)(F)F)C(F)(F)F)c(C)c1)c1ccc(OC[C@H](O)CCCC(=O)O)c(C)c1 [Example 60, (R)-6-(4-{1-ethyl-1-[3-methyl4-(4,4,4-trifluoro-3-hydroxy-3-trifluoromethyl-but-1-ynyl)-phenyl]-propyl}-2-methyl-phenoxy)-5-hydroxy-hexanoic acid]  235%
17. CCC(CC)(c1ccc(/C=C/C(O)(C(F)(F)F)C(F)(F)F)c(C)c1)c1ccc(OCCCCCC(=O)O)c(C)c1 [Example 92, 6-(4-{1-Ethyl-1-[3-methyl-4-((E)4,4,4-trifluoro-3-hydroxy-3-trifluoromethyl-but-1-enyl)-phenyl]-propyl}-2-methyl-phenoxy)-hexanoic acid]  226%
18. CCC(CC)(c1ccc(/C=C/C(O)(C(F)(F)F)C(F)(F)F)c(C)c1)c1ccc(OC[C@H](O)CC(=O)O)c(C)c1 [Example 54, (R)-4-(4-{1-ethyl-1-[3-methyl4-((E)-4,4,4-trifluoro-3-hydroxy-3-trifluoromethyl-but-1-enyl)-phenyl]-propyl}-2-methyl-phenoxy)-3-hydroxy-butyric acid]  172%
19. CCC(CC)(c1ccc(C#CC(O)C(C)(C)C)c(C)c1)c1ccc(OC[C@@H](O)CO)c(C)c1 (stereo partly drawn) [Example 66, 3-(4-{1-ethyl-1-[4-(3-hydroxy-4,4-dimethyl-pent-1-ynyl)-3-methyl-phenyl]-propyl}-2-methyl-phenoxy)-propane-1,2(S)-diol]  126%
20. CCC(CC)(c1ccc(OCC(O)CO)c(C)c1)c1ccc(OCC(O)C(C)(C)C)c(C)c1 (stereo not drawn) [LG190178, reference compound]  100%
21. CCC(CC)(c1ccc(/C=C/C(O)(C(F)(F)F)C(F)(F)F)c(C)c1)c1ccc(OCCCCc2nnn[nH]2)c(C)c1 [Example 115, (E)-4-[4-(1-ethyl-1-{3-methyl-4-[4-(1 H-tetrazol-5-yl)-butoxy]-phenyl}-propyl)-2-methyl-phenyl]-1,1,1-trifluoro-2-trifluoromethyl-but-3-en-2-ol]  91%
22. CCC(CC)(c1ccc(C#CC(O)(C(F)(F)F)C(F)(F)F)c(C)c1)c1ccc(OC[C@@H](O)CCC(=O)O)c(C)c1 [Example 2, (S)-5-(4-{1-ethyl-1-[3-methyl-4-(4,4,4-trifluoro-3-hydroxy-3-trifluoromethyl-but-1-ynyl)-phenyl]-propyl}-2-methyl-phenoxy)-4-hydroxy-pentanoic acid]  49%
23. CCC(O)(/C=C/c1ccc(C(CC)(CC)c2ccc(OC[C@H]3CCCC(=O)O3)c(C)c2)cc1C)CC [Example 190, 6(R)-(4-{1-Ethyl-1-[4-((E)-3-ethyl-3-hydroxy-pent-1-enyl)-3-methyl-phenyl]-propyl}-2-methyl-phenoxymethyl)-tetrahydro-pyran-2-one]  22%

With `CCC(CC)(c1ccc(/C=C/C(O)(C(F)(F)F)C(F)(F)F)c(C)c1)c1ccc(OCCCCCN)c(C)c1` [Example 125, (E)4-(4-{1-[4-(5-Amino-pentyloxy)-3-methyl-phenyl]-1-ethyl-propyl}-2-methyl-phenyl)-1,1,1-trifluoro-2-trifluoromethyl-but-3-en-2-ol] the “ECaC-2 mRNA induction activity in Caco-2 cells” value was less than 10%.
